Results taken from patent US12208110B2 (priority 2020, dated 2025).

Legend:
[1] = system: RSV-Fluc (Recombinant Respiratory Syncytial virus strain A2 containing the firefly luciferase reporter); test: microbe, parasite or virus in culture; format: cell-based; settings: human respiratory syncytial virus, NHBE, 72 h, read-out: RSV-Fluc EC50 (nM, NHBE)
[2] = MT4 cytotoxicity analysis (CellTiter-Glo); format: cell-based; settings: human, MT4 CC50 (nM)
Summary of the method: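 MT-4 cells were exposed in quadruplicate to 3-fold serial compound dilutions (DMSO stocks 2.5 uM to 10 mM) for five days at 37 °C. Viability was read by CellTiter-Glo luminescence.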

[3] = design: species or system Sprague-Dawley (SD) rats; settings: male, Sprague-Dawley, rat, in vivo, po, 10 mg/kg
Experimental: Example 80: Rat Lung Phosphate (Monophosphate, Diphosphate and Triphosphate) Data with Exemplary Compounds
Measurement of GS-441524 (compound A below) and its phosphorylated metabolites (compounds B, C, and D below) in lung tissues was performed according to the following protocol.
The concentrations of GS-441524 (A) and its phosphorylated metabolites (B, C, and D) were determined in Sprague-Dawley (SD) rats following oral gavage administration of the test compounds. The in-life phase of studies was conducted at Covance Laboratories (Madison, WI). Animals were housed and handled in accordance with the Guide for the Care and Use of Laboratory Animals, Institute of Laboratory Animal Resources. The protocols were reviewed and approved by the Institutional Animal Care and Use Committees (IACUC). Male SD rats weighing approximately 0.3 kg were used for in-life portion of the studies. The animals were fasted overnight prior to the test compound administration and up to 4 hours post-dose. The animals were administered with the test compound at 5, 8, 10 or 20 mg/kg via oral gavage (3 rats per group). The aqueous formulation contains ethanol, dimethyl sulfoxide, Kolliphor HS-15, Labrasol, and propylene glycol. Approximately 0.5 grams of lung tissue samples were collected from each animal and analyzed by LC/MS/MS for determination of the concentrations of GS-441524 and its phosphorylated metabolites. For LC-MS/MS analysis, tissue samples were homogenized and extracted with 4-fold volume of 70% methanol containing 0.1% potassium hydroxide, 67 mM ethylenediamine tetraacetic acid, and internal standard. Approximately 200 μL aliquot of the homogenate was filtered using a 96-well filter plate (0.2 μm polypropylene; Agilent Captiva, Santa Clara, CA). The filtrate was evaporated to dryness and reconstituted with equal volume of 1 mM ammonium phosphate buffer (pH 7). The samples were then analyzed on a Sciex 6500+ LC-MS/MS instrument (Redwood City, CA). Analytes were eluted on a […] 50×2.0 mm Phenomenex Luna C18 HST column (Torrance, CA) using mobile phases containing 3 mM ammonium formate and 10 mM dimethylhexylamine and a linear gradient from 9% to 50% acetonitrile at a flow rate of 360 μL/min. Data acquisition and processing were accomplished using Sciex Analyst® Software. Total summed levels of GS-441524 phosphorylate metabolites (B+C+D) in lung tissues were generated from the sum of GS-441524 mono-, di- and tri-phosphate (B, C, and D respectively).

in vitro = format: cell-based; settings: human
Experimental: Example 78: A549 Cytotoxicity Analysis
The cytotoxicity of compounds is determined in A549 cells in the following manner. Compounds (40 nL) are spotted onto 384-well Grenier plates prior to seeding 5000 A549 cells/well in a volume of 40 μL culture medium. The plates are incubated at 37° C. for 48 hours with 5% CO2. On day 2, 40 μL of CellTiter-Glo (Promega) is added and mixed 5 times. Plates are read for luminescence on an Envision (PerkinElmer) and the CC50 (compound concentration for reducing 50% of luminescence signal as a measure of cell viability) are calculated using a nonlinear regression model (four parameters). Two experiments are performed with technical duplicates.

SARS-CoV-2 = test: microbe, parasite or virus in culture; format: cell-based; settings: Severe acute respiratory syndrome coronavirus 2, 48 h

Row | SMILES | EC50 [1] [nM] | CC50 at 5 days [2] [nM] | Total Lung Phosphate Level (monophosphate + diphosphate + triphosphate, nmol/g) [3] [nmol/g] | CC50 at 48 h (in vitro) [nM] | EC50 (SARS-CoV-2) [nM]
1 | CCCCCCCCCCCCCCCCCCOC[C@H](COP(=O)(O)OC[C@H]1O[C@@](C#N)(c2ccc3c(N)ncnn23)[C@H](O)[C@@H]1O)OCc1cc(OC)c(C#N)c(OC)c1 [Example 55, ((2R,3S,4R,5R)-5-(4-aminopyrrolo[2,1-f][1,2,4]triazin-7-yl)-5-cyano-3,4-dihydroxytetrahydrofuran-2-yl)methyl ((R)-2-((4-cyano-3,5-dimethoxybenzyl)oxy)-3-(octadecyloxy)propyl) hydrogen phosphate] | 24 | 270 | 2.1 | – | –
2 | CCCCCCCCCCCCCCCCCCC[C@H](COP(=O)(O)OC[C@H]1O[C@@](C#N)(c2ccc3c(N)ncnn23)[C@H](O)[C@@H]1O)OCc1cc(F)cc(C#N)c1 [Example 35, ((2R,3S,4R,5R)-5-(4-aminopyrrolo[2,1-f][1,2,4]triazin-7-yl)-5-cyano-3,4-dihydroxytetrahydrofuran-2-yl)methyl ((R)-2-((3-cyano-5-fluorobenzyl)oxy)henicosyl) hydrogen phosphate] | 95 | 830 | 2.7 | 16000 | 570
3 | CCCCCCCCCCCCCCCCCCOC[C@H](COP(=O)(O)OC[C@H]1O[C@@](C#N)(c2ccc3c(N)ncnn23)[C@H](O)[C@@H]1O)Oc1cc(OC)c(C#N)c(OC)c1 [Example 34, ((2R,3S,4R,5R)-5-(4-aminopyrrolo[2,1-f][1,2,4]triazin-7-yl)-5-cyano-3,4-dihydroxytetrahydrofuran-2-yl)methyl ((R)-2-(4-cyano-3,5-dimethoxyphenoxy)-3-(octadecyloxy)propyl) hydrogen phosphate] | 11 | 460 | 2.4 | 10000 | 43
4 | CCCCCCCCCCCCCCCCCCOC[C@H](COP(=O)(O)OC[C@H]1O[C@@](C#N)(c2ccc3c(N)ncnn23)[C@H](O)[C@@H]1O)N(C)Cc1ccc(F)c(Cl)c1 [Example 3, ((2R,3S,4R,5R)-5-(4-aminopyrrolo[2,1-f][1,2,4]triazin-7-yl)-5-cyano-3,4-dihydroxytetrahydrofuran-2-yl)methyl ((R)-2-((3-chloro-4-fluorobenzyl)(methyl)amino)-3-(octadecyloxy)propyl) hydrogen phosphate] | 350 | 5700 | 0.6 | – | 2300
